The subject of experiment [1] is Mus musculus. The experiment in a line: Hypoglycemic responses resulting from oral dosing in diabetic ob/ob mice(inactive dose), po. In kind it is functional.
The target of experiment [2] is T1, Glycogen phosphorylase, liver form (Homo sapiens, UniProt P06737).
T1 sequence (P06737 whole entry): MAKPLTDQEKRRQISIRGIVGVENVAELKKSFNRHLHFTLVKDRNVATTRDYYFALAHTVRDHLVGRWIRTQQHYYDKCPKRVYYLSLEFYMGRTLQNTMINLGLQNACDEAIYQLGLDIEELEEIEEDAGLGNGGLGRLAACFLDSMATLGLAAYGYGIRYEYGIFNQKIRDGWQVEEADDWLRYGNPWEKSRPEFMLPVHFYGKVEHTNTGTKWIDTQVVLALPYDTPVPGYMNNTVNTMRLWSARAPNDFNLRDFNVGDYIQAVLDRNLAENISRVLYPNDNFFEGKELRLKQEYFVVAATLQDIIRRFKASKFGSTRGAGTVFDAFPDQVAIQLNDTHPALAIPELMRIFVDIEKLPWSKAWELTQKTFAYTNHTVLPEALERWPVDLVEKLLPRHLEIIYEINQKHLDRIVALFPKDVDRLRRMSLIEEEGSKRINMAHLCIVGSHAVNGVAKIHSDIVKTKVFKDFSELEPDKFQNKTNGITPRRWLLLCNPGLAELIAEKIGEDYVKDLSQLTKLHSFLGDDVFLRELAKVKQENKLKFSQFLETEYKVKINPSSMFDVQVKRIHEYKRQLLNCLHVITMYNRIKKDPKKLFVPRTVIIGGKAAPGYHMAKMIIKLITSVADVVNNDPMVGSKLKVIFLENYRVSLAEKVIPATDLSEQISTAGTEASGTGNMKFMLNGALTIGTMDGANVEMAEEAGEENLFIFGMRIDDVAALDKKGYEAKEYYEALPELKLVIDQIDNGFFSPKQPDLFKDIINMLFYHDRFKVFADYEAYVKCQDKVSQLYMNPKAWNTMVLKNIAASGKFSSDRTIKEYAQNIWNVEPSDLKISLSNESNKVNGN
Put plainly: In vitro inhibitory activity against recombinant human liver glycogen phosphorylase a (rHLGPa) catalyzed release of phosphate from glucose-1-phosphate.

The nature of experiment [3]: Inhibition of forskolin-stimulated glycogenolysis in SK-HEP-1 cells. In kind it is functional, cell-based. The conditions noted are these: Homo sapiens, SK-HEP1.
The species named for experiment [4] is Mus musculus. Put plainly: Percent decrease in drug -treated plasma glucose concentration, relative to vehicle treated control diabetic ob/ob mice. In kind it is functional.
In experiment [5] the test system is Mus musculus. Put plainly: Hypoglycemic responses resulting from oral dosing in diabetic ob/ob mice(active dose), po. In kind it is functional.

Where “and” joins values, the source holds several entries; their conditions need not be identical. Identical values can stand only once. Where only a bound is given, the exact number is not on record here.

For the compound `COC(=O)[C@H](Cc1ccccc1)NC(=O)c1cc2cc(Cl)ccc2[nH]1`, the Dose in experiment [1] stood at 50 mg/kg. The IC50 in experiment [2] was 140 nM; in experiment [3] it was above 30 µM.
Consider `COc1ccc2[nH]c(C(=O)N[C@@H](Cc3ccccc3)C(=O)N(C)C)cc2c1`, for which the IC50 in experiment [2] turned out to be 4700 nM.
With `CN(C)C(=O)[C@H](O)[C@H](CC1CCCCC1)NC(=O)c1cc2cc(Cl)ccc2[nH]1`, the IC50 in experiment [2] came to 6500 nM.
`CN(C)C(=O)[C@@H](Cc1ccccc1)NC(=O)c1cc2cc(Cl)ccc2[nH]1`: the results for the concentration for half-maximal inhibition (IC50) in experiment [2] and in experiment [3] were 260 nM and 12 µM, respectively.
As to `CN(C)C(=O)[C@@H](O)[C@@H](Cc1ccccc1)NC(=O)c1cc2cc(Cl)ccc2[nH]1`, the IC50 in experiment [2] worked out at 1800 nM.
Consider `O=C(N[C@@H](Cc1ccccc1)C(=O)N1CCC(O)CC1)c1cc2cc(Cl)ccc2[nH]1`, for which the values for the Dose in experiment [1] and in experiment [5] were 10 mg/kg and 25 mg/kg, respectively. The Glucose in experiment [4] is 36%. Further, the figures for the IC50 in experiment [2] and in experiment [3] were 260 nM and 5.1 µM, respectively.
In the case of `O=C(N[C@@H](Cc1ccccc1)[C@@H](O)C(=O)O)c1cc2cc(Cl)ccc2[nH]1`, the results for the IC50 in experiment [2] and in experiment [3] were 330 nM and above 30 µM, respectively.
`CN(C)C(=O)[C@H](Cc1ccccc1)NC(=O)c1cc2cc(Br)ccc2[nH]1` yielded a Dose in experiment [1] of 50 mg/kg. The IC50 turned out to be 110 nM in experiment [2] and 1.4 µM in experiment [3].
For the compound `CN(C)C(=O)[C@H](O)[C@H](Cc1ccccc1)NC(=O)c1cc2cc(Cl)ccc2[nH]1`, the Dose is 15 mg/kg in experiment [1]; 50 mg/kg and 25 mg/kg in experiment [5]. In addition, the Glucose in experiment [4] is 40% and 32%. Besides, the values for the IC50 in experiment [2] and in experiment [3] were 110 nM and 1.5 µM, respectively.
On to `CNC(=O)[C@H](O)[C@H](Cc1ccccc1)NC(=O)c1cc2cc(Cl)ccc2[nH]1`, for which the 50% inhibitory concentration (IC50) in experiment [2] was 680 nM; in experiment [3], above 30 µM.
For the compound `CN(C)C(=O)[C@H](Cc1ccccc1)NC(=O)c1cc2ccccc2[nH]1`, the Dose is 25 mg/kg in experiment [1] and 50 mg/kg in experiment [5]. Further, the Glucose in experiment [4] stood at 40%. Also, the concentration for half-maximal inhibition (IC50) was 400 nM in experiment [2] and 7.8 µM in experiment [3].
For `O=C(N[C@@H](Cc1ccccc1)[C@@H](O)CO)c1cc2cc(Cl)ccc2[nH]1`, in experiment [2], the half-maximal inhibitory concentration (IC50) was determined as 6800 nM.
As to `COC(=O)[C@H](O)[C@H](Cc1ccccc1)NC(=O)c1cc2cc(Cl)ccc2[nH]1`, in experiment [1], the Dose came to 50 mg/kg. The half-inhibitory concentration (IC50) stood at 210 nM in experiment [2] and 13 µM in experiment [3].
For the compound `NC(=O)[C@H](O)[C@H](Cc1ccccc1)NC(=O)c1cc2cc(Cl)ccc2[nH]1`, in experiment [2], the IC50 stood at 1700 nM.
`CN(C)C(=O)[C@H](Cc1ccccc1)NC(=O)c1cc2cc(F)ccc2[nH]1` came in with a Dose in experiment [1] of 50 mg/kg. Besides, the half-maximal inhibitory concentration (IC50) came out at 430 nM in experiment [2] and 2.3 µM in experiment [3].
In experiment [1], `CN(C)C(=O)[C@H](O)[C@H](Cc1ccccc1)NC(=O)c1cc2cc(Br)ccc2[nH]1` had a Dose of 50 mg/kg. In addition, the figures for the half-inhibitory concentration (IC50) in experiment [2] and in experiment [3] were 97 nM and 3.3 µM, respectively.
With `CN(C)C(=O)[C@H](Cc1ccccc1)NC(=O)c1cc2cc(Cl)ccc2[nH]1`, the IC50 in experiment [2] stood at 82 nM; in experiment [3], 1.9 µM.
The matching figures for `O=C(N[C@@H](Cc1ccccc1)C(=O)O)c1cc2cc(Cl)ccc2[nH]1`: 1700 nM and above 30 µM.
In experiment [1], `CN(C)C(=O)[C@@H](O)[C@H](Cc1ccccc1)NC(=O)c1cc2cc(Cl)ccc2[nH]1` yielded a Dose of 50 mg/kg. The IC50 in experiment [2] was found to be 8700 nM.
As for `O=C(N[C@H](CO)Cc1ccccc1)c1cc2cc(Cl)ccc2[nH]1`, the IC50 in experiment [2] was above 10000 nM.
On the same count and under the same terms, for `CN(C)C(=O)[C@H](O)[C@@H](Cc1ccccc1)NC(=O)c1cc2cc(Cl)ccc2[nH]1` the value was 1700 nM.
`CNC(=O)[C@@H](Cc1ccccc1)NC(=O)c1cc2cc(Cl)ccc2[nH]1`: the Dose was determined as 25 mg/kg in experiment [1] and 50 mg/kg in experiment [5]. The same compound displayed a Glucose in experiment [4] of 39%. Also, the concentration for half-maximal inhibition (IC50) was found to be 220 nM in experiment [2] and 12 µM in experiment [3].
The corresponding values for `CNC(=O)[C@H](Cc1ccccc1)NC(=O)c1cc2cc(Cl)ccc2[nH]1` are 25 mg/kg, 50 mg/kg, 49%, 110 nM and 5.2 µM.
As to `CN(C)C(=O)[C@H](O)[C@H](Cc1ccccc1)NC(=O)c1cc2ccccc2[nH]1`, the IC50 in experiment [2] is 440 nM; in experiment [3], above 30 µM.
In the case of `CN(C)C(=O)[C@H](O)[C@H](Cc1ccccc1)NC(=O)c1cc2cc(F)ccc2[nH]1`, the Dose in experiment [1] was determined as 10 mg/kg; in experiment [5], 25 mg/kg. The compound also showed a Glucose in experiment [4] of 33%. The concentration for half-maximal inhibition (IC50) in experiment [2] amounted to 170 nM; in experiment [3] it was 6.2 µM.
Turning to `O=C(N[C@@H](Cc1ccc(F)cc1)C(=O)N1CCC(O)CC1)c1cc2cc(Cl)ccc2[nH]1`, the Dose in experiment [1] was found to be 5 mg/kg. For the same compound, the Glucose in experiment [4] was 44% and 45% and 26% and 24%. In experiment [3], this compound came in with a concentration for half-maximal inhibition (IC50) of 1.9 µM.

What is called IC50 is the concentration that gives 50% inhibition.

For the origin of these results see ChEMBL document CHEMBL1131045, “Indole-2-carboxamide inhibitors of human liver glycogen phosphorylase” (J Med Chem, 1998).
